In patent US8802597B2, “Herbicidal pyrimidines” (E I du Pont de Nemours and Company, priority 2003, dated 2014):
Where two headings read alike, the source gives them in different places.

What was measured:
Test in all cases: Test C pre/postemergence
Assay type in all cases: in vivo
[1] = test system: Surinam grass (Brachiaria decumbens); details: Urochloa decumbens, pre-emergence, Preemergence, read-out: Plant response rating, Surinam Grass
Outline: (§1)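 Injury scored visually 12–14 days after application on 0–100 scale (100 = complete control), relative to controls. Compounds, formulated with surfactant in non-phytotoxic solvent, applied to soil at planting (pre) or to 1- to 4-leaf plants 2–18 cm tall (post) in greenhouse.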

soybean (Glycine max) = details: Glycine max; for plant injury at 31 g/ha: 31 g ai/ha; for plant injury at 62 g/ha: 62 g ai/ha; for plant injury at 125 g/ha: 125 g ai/ha; for plant injury at 250 g/ha: 250 g ai/ha
Outline: as §1

[2] = test system: giant foxtail (Setaria faberii); details: Setaria faberi; for pest or weed control at 125 g/ha: 125 g ai/ha; for pest or weed control at 31 g/ha: 31 g ai/ha; for pest or weed control at 62 g/ha: 62 g ai/ha; for pest or weed control at 250 g/ha: 250 g ai/ha
Outline: as §1

[3] = test system: morningglory (Ipomoea coccinea); details: Ipomoea; for pest or weed control at 31 g/ha: 31 g ai/ha; for pest or weed control at 62 g/ha: 62 g ai/ha; for pest or weed control at 125 g/ha: 125 g ai/ha; for pest or weed control at 250 g/ha: 250 g ai/ha
Outline: as §1

[4] = test system: bermudagrass (Cynodon dactylon); details: Cynodon dactylon; for pest or weed control at 31 g/ha: 31 g ai/ha; for pest or weed control at 62 g/ha: 62 g ai/ha; for pest or weed control at 125 g/ha: 125 g ai/ha; for pest or weed control at 125 g/ha / pest or weed control at 250 g/ha: scale 0 to 100; for pest or weed control at 250 g/ha: 250 g ai/ha
Outline: as §1

[5] = test system: common ragweed (Ambrosia elatior); details: Ambrosia artemisiifolia; for pest or weed control at 31 g/ha: 31 g ai/ha; for pest or weed control at 62 g/ha: 62 g ai/ha; for pest or weed control at 125 g/ha: 125 g ai/ha; for pest or weed control at 250 g/ha: 250 g ai/ha
Outline: as §1

[6] = post-emergence, Postemergence, scale 0 to 100 (0 no effect, 100 complete control), read-out: Soybean plant response rating
[7] = pre-emergence, Preemergence, scale 0 to 100, 0 no effect, 100 complete control, read-out: Plant response rating, Soybean
[8] = pre-emergence, Preemergence, scale 0 to 100, read-out: Plant response rating, Soybean
[9] = post-emergence, Postemergence, scale 0 to 100 (0 no effect, 100 complete control), read-out: Foxtail, Giant plant response rating
[10] = pre-emergence, Preemergence, scale 0 to 100, 0 no effect, 100 complete control, read-out: Plant response rating, Foxtail, Giant
[11] = pre-emergence, Preemergence, scale 0 to 100, read-out: Plant response rating, Foxtail, Giant
[12] = post-emergence, Postemergence, scale 0 to 100 (0 no effect, 100 complete control), read-out: Morningglory plant response rating
[13] = pre-emergence, Preemergence, scale 0 to 100, 0 no effect, 100 complete control, read-out: Plant response rating, Morningglory
[14] = pre-emergence, Preemergence, scale 0 to 100, read-out: Plant response rating, Morningglory
[15] = post-emergence, Postemergence, read-out: Plant response rating, Bermudagrass
[16] = pre-emergence, Preemergence, scale 0 to 100, 0 no effect, 100 complete control, read-out: Plant response rating, Bermudagrass
[17] = pre-emergence, Preemergence, read-out: Plant response rating, Bermudagrass
[18] = post-emergence, Postemergence, scale 0 to 100 (0 no effect, 100 complete control), read-out: Ragweed plant response rating
[19] = pre-emergence, Preemergence, scale 0 to 100, 0 no effect, 100 complete control, read-out: Plant response rating, Ragweed
[20] = pre-emergence, Preemergence, scale 0 to 100, read-out: Plant response rating, Ragweed

COC(=O)c1nc(C2CC2)nc(N)c1Cl [Compound 9, methyl 6-amino-5-chloro-2-cyclopropyl-4-pyrimidinecarboxylate]
pest or weed control at 31 g/ha ([1]; 31 g ai/ha, scale 0 to 100, 0 no effect, 100 complete control): 95% | pest or weed control at 62 g/ha ([1]; 62 g ai/ha, scale 0 to 100, 0 no effect, 100 complete control): 100% | pest or weed control at 125 g/ha ([1]; 125 g ai/ha, scale 0 to 100): 100% | pest or weed control at 250 g/ha ([1]; 250 g ai/ha, scale 0 to 100): 100% | plant injury at 31 g/ha (soybean (Glycine max); post-emergence, Postemergence, read-out: Plant response rating (scale of 0 to 100), Soybean): 95% | plant injury at 62 g/ha (soybean (Glycine max); [6]): 100% | plant injury at 125 g/ha (soybean (Glycine max); [6]): 100% | plant injury at 250 g/ha (soybean (Glycine max); post-emergence, Postemergence, scale 0 to 100, read-out: Plant response rating, Soybean): 100% | plant injury at 31 g/ha (soybean (Glycine max); [7]): 100% | plant injury at 62 g/ha (soybean (Glycine max); [7]): 100% | plant injury at 125 g/ha (soybean (Glycine max); [8]): 100% | plant injury at 250 g/ha (soybean (Glycine max); [8]): 100% | pest or weed control at 125 g/ha [2, 9]: 75% | pest or weed control at 31 g/ha ([2]; post-emergence, Postemergence, read-out: Plant response rating (scale of 0 to 100), Foxtail, Giant): 60% | pest or weed control at 62 g/ha [2, 9]: 65% | pest or weed control at 250 g/ha ([2]; post-emergence, Postemergence, scale 0 to 100, read-out: Plant response rating, Foxtail, Giant): 80% | pest or weed control at 31 g/ha [2, 10]: 0% | pest or weed control at 62 g/ha [2, 10]: 0% | pest or weed control at 125 g/ha [2, 11]: 75% | pest or weed control at 250 g/ha [2, 11]: 80% | pest or weed control at 31 g/ha ([3]; post-emergence, Postemergence, read-out: Plant response rating (scale of 0 to 100), Morningglory): 90% | pest or weed control at 62 g/ha [3, 12]: 95% | pest or weed control at 125 g/ha [3, 12]: 100% | pest or weed control at 250 g/ha ([3]; post-emergence, Postemergence, scale 0 to 100, read-out: Plant response rating, Morningglory): 100% | pest or weed control at 31 g/ha [3, 13]: 100% | pest or weed control at 62 g/ha [3, 13]: 100% | pest or weed control at 125 g/ha [3, 14]: 100% | pest or weed control at 250 g/ha [3, 14]: 100% | pest or weed control at 31 g/ha ([4]; post-emergence, Postemergence, read-out: Plant response rating (scale of 0 to 100), Bermudagrass): 60% | pest or weed control at 62 g/ha ([4]; post-emergence, Postemergence, scale 0 to 100 (0 no effect, 100 complete control), read-out: Bermudagrass plant response rating): 65% | pest or weed control at 125 g/ha [4, 15]: 70% | pest or weed control at 250 g/ha [4, 15]: 80% | pest or weed control at 31 g/ha [4, 16]: 100% | pest or weed control at 62 g/ha [4, 16]: 100% | pest or weed control at 125 g/ha [4, 17]: 100% | pest or weed control at 250 g/ha [4, 17]: 100% | pest or weed control at 31 g/ha ([5]; post-emergence, Postemergence, read-out: Plant response rating (scale of 0 to 100), Ragweed): 70% | pest or weed control at 62 g/ha [5, 18]: 80% | pest or weed control at 125 g/ha [5, 18]: 95% | pest or weed control at 250 g/ha ([5]; post-emergence, Postemergence, scale 0 to 100, read-out: Plant response rating, Ragweed): 100% | pest or weed control at 31 g/ha [5, 19]: 100% | pest or weed control at 62 g/ha [5, 19]: 100% | pest or weed control at 125 g/ha [5, 20]: 100% | pest or weed control at 250 g/ha [5, 20]: 100%
